{"source": "patent US20230270764A1", "about": "“COMPOSITION COMPRISING CANNABINOIDS, TERPENES, AND FLAVONOIDS FOR TREATING DEPRESSION” (priority 2020, published 2023)", "key": {"[1]": {"system": "BV2 microglial cells", "assay": "LPS-induced TNFα secretion by BV2 microglia cell cultures (ELISA)", "assay_type": "cell-based, murine", "conditions": "for levels of TNFα compared to cultures treated with vehicle and LPS: 24-hours incubation, CBD 10 but not 1 µM, linalool 100 but not 25 µM, kaempferol dose-dependently at 10, 25 and 50 µM, quercetin 10 and 25 but not 5 µM; for IC50: Mus musculus", "protocol": "The BV2 murine microglial cell line is used in these studies.\nThe BV2 cells are cultured at 37° C. in a humidified atmosphere with 5% CO2 in high D-glucose (4.5 g/L) Dulbecco’s modified Eagle’s medium (Sigma, Rehovot, Israel) supplemented with 5% heat-inactivated fetal bovine serum, streptomycin (100 µg/ml), and penicillin (100 units/ml) and sodium pyruvate (1 mM; all from Biological Industries Ltd., Kibbutz Beit Haemek, Israel). 24 hours before experiments with LPS stimulation, the BV2 cells are split into 24 well plates, 2×10^5 cells per well, covered with 1 ml of growth medium and allowed to attach overnight. 24 hr before experiments with α-synuclein, the BV2 cells are split into 96-well plates, 50,000 (5×10^4) cells per well, covered with 200 µl of growth medium and allowed to attach overnight. Cultures of BV2 microglia cells are first treated by an individual cannabinoid, or terpene or flavonoid selected from: Cannabidiol (CBD), Δ-9-tetrahydrocannabinol (THC), Δ-8-tetrahydrocannabinol (THC), cannabigerol (CBG), cannabichromene (CBC), cannabigerolic acid (CBGA), Cannabidiolic acid (CBDA), THC acid (THCA), cannabichromenic Acid (CBCA), Cannabidivarin (CBDV), tetrahydrocannabivarin (THCV), Cannabichromevarin (CBCV), Cannabichromerocin ([…]), Cannabivarin (CBV), Cannabicitran (CBT), Cannabinol (CBN), Cannabicyclol (CBL), Cannabigerorcin (CBGO), Cannabinodiol (CBND), β-caryophyllene, β-elemene, β-myrcene, linalool, α-pinene, β-pinene, eucalyptol, alpha-terpineol, valencene, geraniol (lemonol), bisabolol, nerolidol, ocimene, terpinolene, humulene, α-terpinene, camphene, fenchol, α-phellandrene, Δ3-carene, γ-cardinene, sabinene, limonene, β-amyrin, cycloartenol, cannflavin A, cannflavin B, kaempferol, quercetin, luteolin, apigenin, canniprene, orientin, β-sitosterol, vitexin, isovitexin, and chrysin. Additional cultures of BV2 microglia cells are treated by an individual cannabinoid, with at least one additional cannabinoid, and/or terpene, and/or flavonoid, and/or celecoxib. Additional cultures are exposed to the vehicle of these compounds (cremophor, ethanol and PBS, 1:1:18 (v/v/v)) (FIG. 2A). In some studies, cultures of BV2 microglia cells are treated by a specific whole plant cannabis extract, with or without supplementation with cannabinoid(s), and/or terpene(s) and/or flavonoid(s), and/or celecoxib (FIG. 2B).\nFor each individual cannabinoid mentioned above, 3-4 concentrations are used, ranging from 0.1 to 10 µM. For ultra-low dose Δ9-THC the concentration used is 0.01 µM. […] For celecoxib, 3-4 concentrations are used, ranging from 0.1 to 10 µM. Two hours following the treatment, the cultures are exposed to one of the following microglia stimulators: LPS (Sigma L2630; Escherichia coli serotype O111:B4) is dissolved in D-PBS (Sigma, D8537) to a pre-stock concentration of 1 mg/ml, aliquoted and stored at -80° C. Stock solution of LPS at 10 ug/ml is prepared using sterile D-PBS, followed by filtering via 0.22 µm filter membrane, aliquoting and storing in -20° C. LPS is applied into the cell medium at a final concentration of 100 ng/ml. Poly I:C (Sigma, P1530) was first dissolved in sterile, molecular grade water to the concentration of 10 mg/ml (following the manufacturer’s instructions). This stock solution was further diluted to the concentration of 1 mg/ml in sterile PBS, and the aliquots stored in -20 °C."}, "[2]": {"system": "LPS-injected mice", "assay": "Open field test in the LPS-induced model of depression", "assay_type": "in vivo", "conditions": "for distance travelled in the open field compared with vehicle-treated groups: Example 9, 4-6 months-old male C57BL/6, i.p. 1 h before LPS 330 µg/kg, mg/kg: CBD 30, CBDA 1 or 5, CBD 30 plus THC 10, CBD 30 plus BCP 50", "description": "Animals were housed 2-3/cage, kept in an air-conditioned room (23+°C) and given ad libitum access to food and water. The mice were kept in a reversed light/dark cycle, with lights off from 7 a.m. to 7 p.m. All experiments were approved by the Hebrew University of Jerusalem Ethics Committee on Animal Care and Use. In preparation for the Sucrose Preference Test, mice were habituated 2-3 times to sucrose drinking, by exposing them overnight to two graduated tubes, one containing water and the other containing sucrose solution (1%, w/v). Water and sucrose consumption were measured, and sucrose preference was computed by dividing the amount of sucrose consumed by drinking (ml sucrose) by the total drinking volume (ml of sucrose + water). One day later, the weight of the mice and the food in their cages was weighed for later analysis of food consumption and body weight changes. Groups of mice were injected intraperitoneally (i.p.) with either vehicle (cremophor, ethanol and PBS, 1:1:18 (v/v/v)) or a cannabinoid-based formulation (by itself or with another cannabinoid, or a terpene or a flavonoid). One hour later, each of these groups was injected with LPS (330 µg/kg). All injections were administered at a dose of 10 ml/kg. Four hours following the LPS injection, mice were tested in the Open-Field Test. In this test, the measured locomotor activity reflects not only motor capacity, but particularly the innate motivation for spatial exploration (which increases the distance travelled) and the anxiety level (which reduces the distance travelled, in general, and particularly the distance and time spent in the center of the open field). Each subject was placed near one of the walls of a white 50 X 50 cm^2 arena with 40 cm high walls. The distance travelled (cm), the velocity of the movement (cm/second), the time spent (seconds), distance travelled (cm) in the center area of the arena, as well as the number of entries from the perimeter area into the center of the arena were automatically measured over a 4-minute period, using EthoVision XT video tracking system and software (Noldus, The Netherlands). Twenty-four hours after the LPS injection, mice were tested in the Social Exploration Test. In this test, the subject was placed in an observation cage containing a small metal wire mesh cage with a conspecific mouse inside it. Social exploration, defined as the time of near contact between the nose of the subject and the juvenile in the small cage was recorded for 4 min, using computerized in-house software. Sucrose preference was assessed, as described above, between 8 to 27 hr post LPS injection. Body weight and weight of the food were measured two hours before the LPS injection, and again after 24 hours, and the change in body weight and food consumption were calculated.\nThis particular study was conducted in several experimental cohorts, and not all compounds and all measures were studied in all cohort. However, each cohort included a vehicle-treated group; therefore, the scores in each behavioral test were converted to % of mean vehicle-treated group in every individual cohort/experiment. Statistical comparisons were computed using SPSS software and consisted of one-way analyses of variance (ANOVA), followed by post-hoc comparisons with the Student-Newman-Keuls method. […]"}, "[3]": {"conditions": "Example 4, by itself at 1, 2.5 and 5 µM"}}, "note": "Like-named read-outs stand apart in the source and are kept apart here."}
{"smiles": "C=C(C)[C@@H]1CCC(C)=C[C@H]1c1c(O)cc(CCCCC)cc1O", "note": "[CBD, cannabidiol]", "values": [{"measurement": "levels of TNFα compared to cultures treated with vehicle and LPS", "setting": "[1]", "value": "reduced"}, {"measurement": "release of TNFα", "setting": "[1]; Example 3, 10 µM (not 1, 2.5 or 5 µM)", "value": "significantly inhibited"}, {"measurement": "release of TNFα vs LPS-activated cultures treated with vehicle", "setting": "[1]; [3]", "value": "no effects"}, {"measurement": "TNFα secretion from LPS activated microglial cells", "setting": "[1]; Example 5, CBD 5 µM alone (p<0.05)", "value": "decreased the TNFα secretion"}, {"measurement": "release of TNFα vs LPS-activated cultures treated with vehicle", "setting": "[1]; Example 5, by themselves, CBD 1 and 2.5 µM, quercetin 1, 2.5 and 5 µM", "value": "did not affect"}, {"measurement": "release of TNFα vs LPS-activated cultures treated with vehicle", "setting": "[1]; Example 6, by itself, CBD 1, 2.5 and 5 µM, CBDV 1, 2.5, 5 and 10 µM", "value": "no concentration of either CBD or CBDV by itself affected release of TNFα"}, {"measurement": "inhibition of LPS-induced TNFα secretion", "setting": "[1]; Example 7, by themselves", "value": "did not produce significant inhibition"}, {"measurement": "LPS-induced TNFα release", "setting": "[1]; Example 25, LPS 100 ng/ml, CannA 5 and 10 µM, CBD and CannB only at 10 µM, CannC 1-10 µM, extract concentration as dominant cannabinoid", "value": "significantly inhibited"}, {"measurement": "IC50", "setting": "[1]; BV-2, read-out: CBD IC50, LPS-induced TNFα release, Example 4, addition of 1 µM kaempferol", "value": 2.3, "unit": "µM"}, {"measurement": "IC50", "setting": "[1]; BV-2, read-out: CBD IC50, LPS-induced TNFα release, Example 4, addition of 2.5 µM kaempferol", "value": 1.3, "unit": "µM"}, {"measurement": "IC50", "setting": "[1]; BV-2, read-out: CBD IC50, LPS-induced TNFα release, Example 4, addition of 5 µM kaempferol", "value": 0.8, "unit": "µM"}, {"measurement": "IC50", "setting": "[1]; BV-2, read-out: CBD IC50, LPS-induced TNFα release, Example 5, addition of 1 µM quercetin", "value": 3.8, "unit": "µM"}, {"measurement": "IC50", "setting": "[1]; BV-2, read-out: CBD IC50, LPS-induced TNFα release, Example 5, addition of 2.5 µM quercetin", "value": 3.2, "unit": "µM"}, {"measurement": "IC50", "setting": "[1]; BV-2, read-out: CBD IC50, LPS-induced TNFα release, Example 5, addition of 5 µM quercetin", "value": 1.8, "unit": "µM"}, {"measurement": "IC50", "setting": "[1]; BV-2, read-out: CBD IC50, LPS-induced TNFα release, Example 6, addition of 1 µM CBDV", "value": 3.4, "unit": "µM"}, {"measurement": "IC50", "setting": "[1]; BV-2, read-out: CBD IC50, LPS-induced TNFα release, Example 6, addition of 2.5 µM CBDV", "value": 4.8, "unit": "µM"}, {"measurement": "IC50", "setting": "[1]; BV-2, read-out: CBD IC50, LPS-induced TNFα release, Example 6, addition of 5 µM CBDV", "value": 2.7, "unit": "µM"}, {"measurement": "IC50", "setting": "[1]; BV-2, read-out: CBD IC50, LPS-induced TNFα release, Example 6, addition of 10 µM CBDV", "value": 2.4, "unit": "µM"}, {"measurement": "IC50", "setting": "[1]; BV-2, read-out: IC50 for TNFα inhibition", "value": 7.2, "unit": "µM"}, {"measurement": "IC50", "setting": "[1]; BV-2, read-out: IC50 for inhibiting LPS-induced TNFα release", "value": 5.3, "unit": "µM"}, {"measurement": "IC50", "setting": "[1]; BV-2, read-out: IC50 for inhibiting LPS-induced TNFα release, Example 5 (FIG. 6C), by itself", "value": 6.2, "unit": "µM"}, {"measurement": "IC50", "setting": "[1]; BV-2, read-out: IC50 for inhibiting LPS-induced TNFα release, Example 6 (FIG. 7C), by itself", "value": 5.4, "unit": "µM"}, {"measurement": "distance travelled in the open field compared with vehicle-treated groups", "setting": "[2]", "value": "significantly increased distance travelled"}, {"measurement": "distance travelled in open field vs vehicle-LPS group", "setting": "[2]; Example 18, 7 months-old male mice, 3 daily i.p. injections, LPS 250 µg/kg, CLX 10 and 20 mg/kg or CBD 30 mg/kg by themselves", "value": "did not have significant effects"}, {"measurement": "number of entries into the center area vs vehicle-LPS group", "setting": "[2]; Example 18, CBD 30 mg/kg by itself", "value": "no significant effects"}, {"measurement": "distance moved in the center of the open field vs vehicle-LPS group", "setting": "[2]; Example 18, celecoxib 10, 20, 30 mg/kg or CBD 30 mg/kg by themselves", "value": "no significant effects"}, {"measurement": "distance travelled in the open field test", "setting": "[2]; adult (6-9 months-old) and young adult (2.5-3 months old) female mice, acute CBD, saline or LPS", "value": "None of these parameters was influenced by treatment with CBD"}, {"measurement": "distance traveled in the open field test, LPS-injected groups", "setting": "[2]; adult (6-9 months-old) male mice, acute CBD 30 mg/kg", "value": "significantly attenuated the suppressive effect of LPS"}, {"measurement": "LPS-induced decrease in distance moved in the open field test", "setting": "[2]; young adult (2.5-3 months old) male mice, acute CBD", "value": "None of these parameters was influenced by treatment with CBD"}, {"measurement": "attenuation of LPS effect on distance travelled in the open field test", "setting": "[2]; young-adult male mice, CBD 30 mg/kg i.p. 3 consecutive days, last 1 hr before LPS 330 µg/kg", "value": "did not reach statistical significance"}]}
{"smiles": "C=C(C)[C@@H]1CCC(C)=C[C@H]1c1c(O)cc(CCCCC)c(C(=O)O)c1O", "note": "[CBDA, Cannabidiolic acid]", "values": [{"measurement": "effect on lipopolysaccharide-induced TNFα secretion", "setting": "[1]; THC 0.1, 0.5 and 1 µM, CBDA 0.2, 1 and 2 µM, CBC 0.1, 1 and 2 µM, α-pinene, β-pinene, limonene 25 or 100 µM", "value": "no effect"}, {"measurement": "distance travelled in the open field compared with vehicle-treated groups", "setting": "[2]", "value": "significantly increased distance travelled"}, {"measurement": "open field distance vs Vehicle-treated LPS-injected mice", "setting": "[2]; young-adult female mice, CBDA 5 mg/kg (not 0.5 or 1)", "value": "significantly increased"}]}
{"smiles": "O=c1c(O)c(-c2ccc(O)cc2)oc2cc(O)cc(O)c12", "note": "[kaempferol]", "values": [{"measurement": "levels of TNFα compared to cultures treated with vehicle and LPS", "setting": "[1]", "value": "reduced"}, {"measurement": "release of TNFα vs LPS-activated cultures treated with vehicle", "setting": "[1]; [3]", "value": "no effects"}, {"measurement": "IC50", "setting": "[1]; BV-2, Example 4 (FIG. 5C), by itself, read-out: IC50 for inhibiting LPS-induced TNFα release", "value": 9.8, "unit": "µM"}, {"measurement": "open-field activity compared with the Veh-treated LPS group", "setting": "[2]; adult female mice, kaempferol 60 mg/kg by itself or together with CBD 30 mg/kg", "value": "significant elevation in open-field activity"}]}
